Laboratory results: patent publication US20230398130A1, “METHODS AND COMPOSITIONS FOR DIFFERENTIATING STEM CELLS” (Massachusetts Institute of Technology, priority 2020, published 2023)

Columns and labels:
ISC-enriched organoids [1] = test: Primary screen, 384-well 2.5-D organoid differentiation (ENR+CD, 6 days): basal lysozyme secretion (LYZ.NS); type: cell-based, murine; conditions: for Dose.FC.LYZ.NS: ENR+CD, 6 days, FC vs plate median; for Z.LYZ.NS: standard z score of FC
Description: (§1) High-throughput screening.

ISC-enriched organoids [2] = test: Primary screen, 384-well 2.5-D organoid differentiation (ENR+CD, 6 days): carbachol-induced lysozyme secretion (LYZ.S); type: cell-based, murine; conditions: ENR+CD, 6 days, FC vs plate median
Description: as §1

ISC-enriched organoids [3] = test: Primary screen, 384-well 2.5-D organoid differentiation (ENR+CD, 6 days, Target Selective Inhibitor Library, vs whole-plate median): ATP (CellTiter-Glo 3D, CTG); conditions: for Dose.FC.CTG: ENR+CD, 6 days, FC vs plate median; for Z.CTG: standard z score of FC

Compound | Dose.FC.LYZ.NS (ISC-enriched organoids [1]; Dose 0.08 uM) | Z.LYZ.NS (ISC-enriched organoids [1]; Dose 0.08 uM) | Dose.FC.LYZ.NS (ISC-enriched organoids [1]; Dose 0.40 uM) | Z.LYZ.NS (ISC-enriched organoids [1]; Dose 0.40 uM) | Dose.FC.LYZ.NS (ISC-enriched organoids [1]; Dose 2.00 uM) | Z.LYZ.NS (ISC-enriched organoids [1]; Dose 2.00 uM) | Dose.FC.LYZ.NS (ISC-enriched organoids [1]; Dose 10.00 uM) | Z.LYZ.NS (ISC-enriched organoids [1]; Dose 10.00 uM) | Dose.FC.LYZ.S (ISC-enriched organoids [2]; Dose 0.08 uM) | Dose.FC.LYZ.S (ISC-enriched organoids [2]; Dose 0.40 uM) | Dose.FC.LYZ.S (ISC-enriched organoids [2]; Dose 2.00 uM) | Dose.FC.LYZ.S (ISC-enriched organoids [2]; Dose 10.00 uM) | Dose.FC.CTG (ISC-enriched organoids [3]; Dose 0.08 uM) | Z.CTG (ISC-enriched organoids [3]; Dose 0.08 uM) | Dose.FC.CTG (ISC-enriched organoids [3]; Dose 0.40 uM) | Z.CTG (ISC-enriched organoids [3]; Dose 0.40 uM) | Dose.FC.CTG (ISC-enriched organoids [3]; Dose 2.00 uM) | Z.CTG (ISC-enriched organoids [3]; Dose 2.00 uM) | Dose.FC.CTG (ISC-enriched organoids [3]; Dose 10.00 uM) | Z.CTG (ISC-enriched organoids [3]; Dose 10.00 uM)
CCCCCCCCc1ccc(CCC(N)(CO)CO)cc1.Cl [Fingolimod (FTY720) HCl] | −0.054 log 2 fold change | −0.471 | 0.071 log 2 fold change | 0.616 | 0.021 log 2 fold change | 0.186 | −0.225 log 2 fold change | −1.961 | −0.046 log 2 fold change | 0.077 log 2 fold change | −0.060 log 2 fold change | −0.362 log 2 fold change | −0.080 log 2 fold change | −0.191 | 0.103 log 2 fold change | 0.245 | −0.468 log 2 fold change | −1.119 | −1.304 log 2 fold change | −3.116
COc1ccc(C[C@@H](C)NC[C@H](O)c2ccc(O)c(NC=O)c2)cc1.COc1ccc(C[C@@H](C)NC[C@H](O)c2ccc(O)c(NC=O)c2)cc1.O=C(O)/C=C/C(=O)O [Formoterol Hemifumarate] | 0.145 log 2 fold change | 1.263 | 0.073 log 2 fold change | 0.638 | 0.048 log 2 fold change | 0.420 | 0.013 log 2 fold change | 0.114 | 0.206 log 2 fold change | 0.293 log 2 fold change | 0.090 log 2 fold change | 0.011 log 2 fold change | 0.294 log 2 fold change | 0.703 | 0.265 log 2 fold change | 0.633 | 0.242 log 2 fold change | 0.578 | 0.253 log 2 fold change | 0.604
COc1cc(Nc2ncc(F)c(Nc3ccc4c(n3)N(COP(=O)(O)O)C(=O)C(C)(C)O4)n2)cc(OC)c1OC [Fostamatinib (R788)] | 0.119 log 2 fold change | 1.033 | −0.025 log 2 fold change | −0.217 | −0.099 log 2 fold change | −0.860 | −0.234 log 2 fold change | −2.036 | 0.235 log 2 fold change | 0.156 log 2 fold change | −0.015 log 2 fold change | −0.350 log 2 fold change | 0.232 log 2 fold change | 0.554 | −0.052 log 2 fold change | −0.123 | −0.231 log 2 fold change | −0.552 | −0.881 log 2 fold change | −2.105
CC(C)NC[C@@H](C(=O)N1CCN(c2ncnc3c2[C@H](C)C[C@H]3O)CC1)c1ccc(Cl)cc1 [GDC-0068] | 0.036 log 2 fold change | 0.311 | 0.054 log 2 fold change | 0.469 | −0.077 log 2 fold change | −0.675 | −0.185 log 2 fold change | −1.613 | 0.076 log 2 fold change | 0.087 log 2 fold change | −0.059 log 2 fold change | −0.319 log 2 fold change | 0.042 log 2 fold change | 0.099 | 0.118 log 2 fold change | 0.283 | 0.184 log 2 fold change | 0.439 | −0.100 log 2 fold change | −0.238
CN[C@@H](C)C(=O)N[C@H](C(=O)N1CCC[C@H]1C(=O)Nc1snnc1-c1ccccc1)C1CCCCC1 [GDC-0152] | −0.002 log 2 fold change | −0.013 | −0.020 log 2 fold change | −0.176 | 0.083 log 2 fold change | 0.724 | 0.103 log 2 fold change | 0.900 | −0.020 log 2 fold change | −0.036 log 2 fold change | −0.057 log 2 fold change | −0.009 log 2 fold change | 0.151 log 2 fold change | 0.361 | 0.158 log 2 fold change | 0.377 | 0.003 log 2 fold change | 0.008 | 0.241 log 2 fold change | 0.575
